Results: PubChem BioAssay AID330 (DTP/NCI, 2004)
Values joined by “and” are separate entries in the source; they are usually repeats but may differ in a detail not shown here. Identical values can stand only once. Inconclusive results and toxic doses are left out. The calls were made as follows: active = survival T/C of 150% or more; inactive = T/C below 125% in these data.

Tested on: P388 leukemia ip, CD2F1 mice, survival T/C
Experiment: NCI In Vivo Anticancer Drug Screen. Data for tumor model P388 Leukemia (intraperitoneal) in CD2F1 (CDF1) mice
Conditions: endpoint: median survival time, higher = longer survival
Summary of the method: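 Mice carrying the transplanted tumor received test compound or vehicle. Survival was recorded in each group, and the value is the treated-group measurement divided by that of the vehicle-treated control group.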

[1] = dose: 50.0 mg/kg/injection, schedule: Q01DX009 (ip), vehicle: saline with Tween-80
[2] = dose: 100.0 mg/kg/injection, schedule: Q01DX009 (ip), vehicle: saline with Tween-80
[3] = dose: 60.0 mg/kg/injection, schedule: Q01DX005 (ip), vehicle: Klucel (hydroxypropylcellulose) (HPC)
[4] = dose: 120.0 mg/kg/injection, schedule: Q01DX005 (ip), vehicle: Klucel (hydroxypropylcellulose) (HPC)
[5] = dose: 60.0 mg/kg/injection, schedule: Q01DX005 (ip), vehicle: saline with Tween-80
[6] = dose: 120.0 mg/kg/injection, schedule: Q01DX005 (ip), vehicle: saline with Tween-80
[7] = dose: 240.0 mg/kg/injection, schedule: Q01DX005 (ip), vehicle: saline with Tween-80
[8] = dose: 25.0 mg/kg/injection, schedule: Q01DX005 (ip), vehicle: Klucel (hydroxypropylcellulose) (HPC)
[9] = dose: 50.0 mg/kg/injection, schedule: Q01DX005 (ip), vehicle: Klucel (hydroxypropylcellulose) (HPC)

Measured: T/C

CC(=O)Nc1ccc(Sc2ncc([N+](=O)[O-])s2)cc1
inactive: dose: 12.5 mg/kg/injection, schedule: Q01DX009 (ip), vehicle: Klucel (hydroxypropylcellulose) (HPC) 100 % of control | dose: 25.0 mg/kg/injection, schedule: Q01DX009 (ip), vehicle: Klucel (hydroxypropylcellulose) (HPC) 116 % of control | dose: 50.0 mg/kg/injection, schedule: Q01DX009 (ip), vehicle: Klucel (hydroxypropylcellulose) (HPC) 100 % of control and 108 % of control | dose: 100.0 mg/kg/injection, schedule: Q01DX009 (ip), vehicle: Klucel (hydroxypropylcellulose) (HPC) 102 % of control

Nc1ccc(-c2cc(O)ccc2N)cc1
inactive: dose: 25.0 mg/kg/injection, schedule: Q01DX009 (ip), vehicle: saline with Tween-80 100 % of control | [1] 117 % of control | [2] 110 % of control

OCC1OC(OC2C(CO)OC(S)C(O)C2O)C(O)C(O)C1O (stereo not given)
inactive: [1] 98 % of control | [2] 92 % of control | dose: 200.0 mg/kg/injection, schedule: Q01DX009 (ip), vehicle: saline with Tween-80 92 % of control

CNNC(=O)C(=O)n1ccnc1
inactive: dose: 50.0 mg/kg/injection, schedule: Q01DX005 (ip), vehicle: saline 104 % of control | dose: 100.0 mg/kg/injection, schedule: Q01DX005 (ip), vehicle: saline 103 % of control | dose: 200.0 mg/kg/injection, schedule: Q01DX005 (ip), vehicle: saline 101 % of control

Cc1[nH]cnc1CSCCN=C(N)n1[nH]cc(C)c1=O
inactive: [3] 111 % of control | [4] 100 % of control | dose: 240.0 mg/kg/injection, schedule: Q01DX005 (ip), vehicle: Klucel (hydroxypropylcellulose) (HPC) 99 % of control

Cc1c(OCC(=O)N/N=C/c2ccc(N(CCCl)CCCl)cc2)ccc2c(=O)c3ccccc3oc12
inactive: [3] 96 % of control | [4] 98 % of control

Cc1c(Cl)cccc1NC(=O)/C(Cl)=C1/Sc2ccccc2NC1=O
inactive: [5] 96 % of control | [6] 93 % of control | [7] 91 % of control

COCNC(=S)c1ccc(C(N)=O)nc1C(=O)NC(C)(C)C
inactive: dose: 50.0 mg/kg/injection, schedule: Q01DX005 (ip), vehicle: saline with Tween-80 98 % of control | dose: 100.0 mg/kg/injection, schedule: Q01DX005 (ip), vehicle: saline with Tween-80 100 % of control | dose: 200.0 mg/kg/injection, schedule: Q01DX005 (ip), vehicle: saline with Tween-80 99 % of control

NC(Cc1cccc2ccccc12)C(=O)O (stereo not given)
inactive: dose: 12.5 mg/kg/injection, schedule: Q01DX005 (ip), vehicle: Klucel (hydroxypropylcellulose) (HPC) 93 % of control | [8] 100 % of control | [9] 102 % of control and 110 % of control

C=C(C)[C@@H]1CCc2c(O)c(O)c(=O)cc(C)c2C1
inactive: dose: 1.75 mg/kg/injection, schedule: Q01DX009 (ip), vehicle: saline 108 % of control | dose: 3.5 mg/kg/injection, schedule: Q01DX009 (ip), vehicle: saline 112 % of control and 113 % of control | dose: 7.0 mg/kg/injection, schedule: Q01DX009 (ip), vehicle: saline 101 % of control and 121 % of control | dose: 14.0 mg/kg/injection, schedule: Q01DX009 (ip), vehicle: saline 110 % of control | dose: 28.0 mg/kg/injection, schedule: Q01DX009 (ip), vehicle: saline 121 % of control | dose: 56.0 mg/kg/injection, schedule: Q01DX009 (ip), vehicle: saline 119 % of control

COc1cc(C)cc(OC)c1
inactive: [8] 101 % of control | [9] 100 % of control | dose: 100.0 mg/kg/injection, schedule: Q01DX005 (ip), vehicle: Klucel (hydroxypropylcellulose) (HPC) 100 % of control | dose: 200.0 mg/kg/injection, schedule: Q01DX005 (ip), vehicle: Klucel (hydroxypropylcellulose) (HPC) 110 % of control

Cc1cc(OC(=O)Nc2ccc(C(C)C)cc2)c(C)cc1Br
inactive: dose: 6.25 mg/kg/injection, schedule: Q01DX009 (ip), vehicle: saline 89 % of control | dose: 12.5 mg/kg/injection, schedule: Q01DX009 (ip), vehicle: saline 92 % of control | dose: 25.0 mg/kg/injection, schedule: Q01DX009 (ip), vehicle: saline 98 % of control | dose: 100.0 mg/kg/injection, schedule: Q01DX009 (ip), vehicle: saline + alcohol 98 % of control | dose: 200.0 mg/kg/injection, schedule: Q01DX009 (ip), vehicle: saline + alcohol 110 % of control

COCCCn1cnn2c(=O)c3ccccc3nc2c1=O
inactive: [5] 103 % of control | [6] 99 % of control | [7] 100 % of control
